A short description of data set [1]: Transwell in vitro BBB model, apparent permeability. In kind it is in vitro ADME. Conditions: mouse, 100 µM in upper chamber, bEnd.3 monolayer, RP-HPLC of lower chamber. The procedure:
The method described by Han et al. was referenced and modified. Briefly, 500 µL of bEnd.3 cells at a density of 5 × 10^4 cells/mL were seeded in the upper chamber of Transwell (0.4 µm, 12-well, PET material), and 1.5 mL of DMEM was added to the lower chamber to ensure the upper and lower chambers were aligned. After cell adherence, the culture medium in the upper chamber was changed daily, while the culture medium in the lower chamber was changed every other day. Once the transendothelial electrical resistance (TEER) was > 200 Ω·cm^2, both the upper and lower chambers were replaced with serum-free DMEM. After 12 h, EV and TW peptides, solubilized in HBSS at a concentration of 100 µM, were added to the upper chamber. After 4 h, the samples were collected separately, and RP-HPLC detection, along with Origin 2021 mapping analysis, was performed. TEER and apparent permeability coefficient (Papp) were calculated as follows:TEER = (TEERsample − TEERcontrol) × Cell Culture Area(5) (6) Papp=∆C·V/∆t·C0·A(cm/s) where ΔC represents the concentration in the lower chamber (µM), V is the volume of the lower chamber (mL), Δt indicates the experimental time (s), C0 is the initial concentration in the upper chamber, and A is the membrane area of the Transwell (cm^2).

For the next data set, the system named is in vitro BBB model. The conditions noted are these: cited from earlier work.
Details of data set [2]: method as in PMID 29463072. The conditions noted are these: cited from earlier work.
Data set [3] can be described thus: DPPH radical scavenging activity. The conditions noted are these: substrate concentration 1 mg/mL (printed for EV peptides); 30 min, 517 nm. The procedure: A modified DPPH scavenging assay was conducted following the method described by Shen et al.. 0.0023 g of DPPH was mixed with 100 mL of 95% absolute ethanol to prepare a 60 µmol/L DPPH radical working solution. The sample was then mixed with 60 µmol/L DPPH free radical working solution at a 1:1 (v/v) ratio, mixed thoroughly, and allowed to stand in the dark for 30 min. The mixture was then centrifuged at 4500 rpm for 10 min. The absorbance was measured at a wavelength of 517 nm and compared with an equivalent concentration of GSH. The DPPH radical scavenging rate was calculated using the following formula:(1) DPPH radical scavenging ratio % = 1−Aa−Ab/Ac×100% where Aa represents the absorbance value of EV, TW and YV peptides solution added to DPPH scavenging radical working solution; Ab denotes the absorbance value of the solution with 95% (v/v) absolute ethanol and the […] scavenging radical working solution; Ac is the absorbance value after mixing distilled water and DPPH in equal volumes of 1:1.
On the technique in general: Loss of DPPH colour is used to gauge radical scavenging.

Data set [4] in a line: ABTS radical scavenging activity. Conditions: 1 mg/mL; 6 min, 734 nm. Here is the method:
ABTS scavenging radical determination was conducted following the procedure of Li et al. with slight modifications. A 7 mmol/L aqueous solution of ABTS and a 2.49 mmol/L aqueous solution of potassium persulfate were mixed in a 1:1 ratio. The mixture was allowed to stand in the dark at 4 °C for 12–16 h. The concentration was adjusted using 5 mmol/L PBS (pH 7.4) to ensure that the absorbance of the ABTS radical stock solution was 0.700 ± 0.002 at a wavelength of 734 nm. EV and TW peptide aqueous solutions (10 µL), each at a concentration of 1 mg/mL, were taken. A glutathione aqueous solution with the same substrate concentration was used as the control group. After adding the samples to a black 96-well plate, 190 µL of ABTS free radical working solution was added to each well. The absorbance at 734 nm was measured using a microplate reader after a 6 min reaction.
The ABTS clearance was calculated as follows:(2) ABTS radical scavenging rate % = 1−Aa−Ab/Ac×100% where Aa represents the sample; Ab represents the absorbance of the solution in which the ABTS working solution was substituted with 5 mmol/L PBS; Ac represents the absorbance of the blank group.

A short description of data set [5]: Oxygen radical absorbance capacity (ORAC) assay. The conditions noted are these: substrate concentration 1 mg/mL (printed for EV peptides). Here is the method:
ORAC assay was performed based on the technique of Simon et al., with minor modifications. First, in black 96-well plates, 25 µL of PBS buffer (75 mmol/L, pH 7.4), 25 µL of Trolox standard solutions (at concentrations of 6.25 µM, 12.5 µM, 25 µM, 50 µM), and the peptide solution were added at a 1:1 volume ratio. Then, the samples were incubated at 37 °C for 10 min. Subsequently, 150 µL of […] sodium fluorescein was added to all wells and incubated at 37 °C for 20 min. Following this, 25 µL of 6 mmol/L azobisisobutyramidine hydrochloride (AAPH) solution was quickly added to each well. Two control groups were established: one consisted of a black 96-well plate with free radicals (+AAPH), while the other group included a black 96-well plate without free radicals (−AAPH). Both plates were placed in a microplate reader and shaken for 5 s. The excitation wavelength was set to 485 ± 20 nm, and the emission wavelength was set to 530 ± 10 nm. The entire system was set at 37 °C, and the fluorescence intensity was measured every 2 min. […]
The measurement results were expressed as ORAC values using the following formula:ORAC value = [(AUCpeptide − AUCblank)/(AUtrolox − AUCblank)] × Ctrolox/Cpeptide(4) […]

Details of data set [6]: method as in PMID 22934681. Conditions: cited from earlier work.
Another data set concerns HT22 cells. The data set is classed as cell-based. The conditions noted are these: mouse, 24 h, 100 µM. The procedure:
Mouse brain microvascular endothelial cells (bEnd.3) and mouse hippocampal neuron cells (HT22) were purchased from Zhong Qiao Xin Zhou Biological Technology Ltd. (Shanghai, China). Cells were cultured in DMEM (Cat # 11965092, Gibco, New York, USA) supplemented with 1% (v/v) penicillin/streptomycin (MA0110, MeilunBio, Dalian, China) and 10% (v/v) fetal bovine serum (C04001-500, Vivacell, Shanghai, China) in a 5% CO2 humidified incubator at 37 °C, and passaged every 2 days. When cell confluence reached 85–90%, cells were seeded into 6/12 well plates at a density of 1 × 10^5 cells/mL. Once the confluence reached 85–90% again, the cells were cultured in H2O2 medium at varying concentrations for 2 h as a model group. Cell viability was assessed using MTT at 0.1 mg/mL, and the optimal H2O2 concentration was determined when the cell viability approached 50%.
When cell confluence reached 80–90%, they were incubated with 100 µM EV peptides and TW peptides, respectively, for 24 h, followed by injury with 800 µM H2O2 for 2 h to observe the protective effect of the peptides. Among them, the model group was directly injured after 24 h of incubation with DMEM.

Another data set is described as follows: in vivo. The conditions noted are these: C57/BJ, mouse, po.
Data set [7] is described as follows: in vitro.
Method: Walnut peptides were dissolved in distilled water to prepare a 100 µM aqueous solution. The pH was adjusted to 2.0, and pepsin was added to simulate gastric juice digestion. After 1 and 2 h in a 37 °C water bath, 1 mL of the sample was taken and stored at 4 °C for subsequent use. The pH of the remaining solution was then adjusted to 7.0, and 5 mg/mL trypsin was added to simulate intestinal digestion. After 1 and 2 h in a 37 °C water bath, 1 mL samples were taken, filtered through a 0.22 µm pore size membrane, and analyzed via RP-HPLC.
(§1) Gradient elution was conducted with a mobile phase consisting of pure water with 0.1% TFA (mobile phase A) and acetonitrile containing 0.1% TFA (mobile phase B). […] This was performed for 25 min at a flow rate of 1 mL/min.
Data set [8] is described as follows: in vitro. Conditions: KM, mouse, plasma; for half-life at 166.7 µM: In vitro plasma half-life.
Method: The plasma half-life was evaluated utilizing KM mice (20 ± 2 g) obtained from Changsheng Biotechnology Co., Ltd. (Benxi, Liaoning, China). After the adaptation period, the mice were euthanized by cervical dislocation. Blood was collected from the heart and immediately transferred into an EP tube containing heparin sodium. After standing for 2 h, the plasma was separated by centrifugation at 4500 rpm at 4 °C for 15 min. A 500 µL aliquot of 500 µM peptide solution was added to 1 mL of blank plasma, mixed thoroughly by vortexing, and methanol was added in a 1:3 ratio. After vortexing for 1 min, the mixture was centrifuged at 12,000 rpm for 10 min, and the resulting supernatant was collected for RP-HPLC analysis.
Gradient elution was conducted with a mobile phase consisting of pure water with 0.1% TFA (mobile phase A) and acetonitrile containing 0.1% TFA (mobile phase B). The elution process for mobile phase B was as follows: [sequence]: 10−35%, [sequence]: 8−33%, [sequence]: 5−30%, [sequence]: 4−29%, TWLPLPR: 24−49%, TWLPYPR: 21−46%, TWLPRPR: 16−41%, TWLPKPR: 15−40%, YVPFPLP, YVPFPYP: 11–34%. This was performed for 25 min at a flow rate of 1 mL/min.

The text below walks through data of article PMC12610161, “Structural Engineering of Tyrosine-Based Neuroprotective Peptides: A New Strategy for Efficient Blood–Brain Barrier Penetration” (Foods, 2025).

Where “and” joins values, the source holds several entries; their conditions need not be identical. Equal entries are not always repeated. Where two headings read alike, the source gives them in different places. Ends that are not written are not given here.

Method for in vivo: Six C57/BJ mice were randomly selected, and the peptides [sequence] and [sequence] were administered via gavage, respectively. After 10 h, the mice were euthanized by cervical dislocation, and the brains were harvested. For analysis, 3 mL of normal saline was added to each gram of brain tissue, which was then homogenized. The sample was diluted in a ratio of 1:3 with methanol solution, mixed thoroughly, and centrifuged at 12,000 rpm for 10 min. The resulting supernatant was collected for RP-HPLC analysis.
as §1

As to TWLPKPR [TWLPKPR], in data set [1], the apical-to-basolateral permeability (Papp A→B) (as a rule, how fast a substance crosses the layer from the apical side) at 4 h, 100 µM worked out at 3.45 ×10⁻⁶ cm/s.

As to Gly-Sar, the Apparent permeability with in vitro BBB model was 7.60 ± 1.29 µL/g/min.

As to EVSGPGKSPN [EVSGPGKSPN], in data set [1], the apical-to-basolateral permeability (Papp A→B) at 4 h, 100 µM is 1.36 ×10⁻⁶ cm/s.

With TWLPLPR [TWLPLPR], in data set [1], the Papp A→B at 4 h, 100 µM was 6.85 ×10⁻⁶ cm/s.

On to eveltivir, for which the “Maximum concentration in the brain” value in data set [2] is reported as 46.5 ± 3.5 ng/g.

For the compound `N[C@@H](CCC(=O)N[C@@H](CS)C(=O)NCC(=O)O)C(=O)O` [GSH, glutathione], the “DPPH radical scavenging rate” value in data set [3] was 70.98 ± 1.09% and 70 ± 1.09%. For the same compound, in [4], the “ABTS radical scavenging rate” value was determined as 73.20 ± 2.54%. In addition, the ORAC value in data set [5] stood at 1003.3 ± 18.6 µmol TE/g.

For H-Tyr-D-Ala-Gly-MePhe-Gly-ol, the Plasma half-life is 6.9 ± 2.3 h in [6] (embedded and delivered with GSH-PEG liposomes); 0.153 ± 0.035 h in data set [6] (free peptide).

Take YVPFPYP [YVPFPYP]: the Papp (in general, a coefficient for how fast a substance crosses the barrier) at 4 h, 100 µM in data set [1] was 3.62 ×10⁻⁶ cm/s.

For EVSGPGYSPN [EVSGPGYSPN], the apparent permeability (Papp) at 4 h, 100 µM in data set [1] stood at 8.1 ×10⁻⁶ cm/s. The “Cell viability (MTT)” value with HT22 cells is 86.88 ± 3.18%. Moreover, in “in vivo”, the tissue level at time at 10 h was 1250 ± 910 ng/g. In the data set “in vitro [7]”, this compound returned a recovery at 100 µM of 13.99 ± 0.02%. Besides, in the data set “in vitro [8]”, the amount remaining (in general, what is left of the initial amount, in per cent) at 1 h, 167 µM was 96.64 ± 0.53%; the amount remaining at 2 h, 167 µM was 92.42 ± 0.74%; the amount remaining at 4 h, 167 µM came out at 80.5 ± 0.65%; the share remaining at 8 h, 167 µM is 58.64 ± 0.52%. In “in vitro [8]”, this compound gave a share remaining at 12 h, 167 µM of 51 ± 0.64%; a fraction remaining at 24 h, 167 µM of 24.3 ± 1.94%; a share remaining at 36 h, 167 µM of 0%; an amount remaining at 48 h, 167 µM of 0%. Besides, the half-life (commonly the time needed for the level to fall by half in the phase considered) at 166.7 µM in “in vitro [8]” was above 12 h.

For the compound TWLPYPR [TWLPYPR], the Papp A→B at 4 h, 100 µM in [1] was found to be 7.06 ×10⁻⁶ cm/s.

EVSGPGLSPN [EVSGPGLSPN]: in data set [1], the Papp at 4 h, 100 µM was 3.78 ×10⁻⁶ cm/s. Besides, in the data set on HT22 cells, the “Cell viability (MTT)” value was 78.63 ± 0.86%. This compound yielded a tissue level at time at 10 h in the data set “in vivo” of 250 ± 110 ng/g. The recovery at 100 µM in “in vitro [7]” came out at 19.5 ± 3.33%. In the data set “in vitro [8]”, this compound showed a metabolised at 48 h, 167 µM of 2.23%; an amount remaining at 1 h, 167 µM of 99.75 ± 0.35%; a fraction remaining at 2 h, 167 µM of 99 ± 0.75%; a fraction remaining at 4 h, 167 µM of 98.13 ± 0.06%. Besides, in the data set “in vitro [8]”, the share remaining at 8 h, 167 µM was 97.86 ± 0.49%; the amount remaining at 12 h, 167 µM was found to be 96.86 ± 0.5%; the amount remaining at 24 h, 167 µM worked out at 95.62 ± 0.64%; the amount remaining at 36 h, 167 µM was determined as 94.96 ± 0.36%. Moreover, in “in vitro [8]”, the amount remaining at 48 h, 167 µM worked out at 94.77 ± 0.64% and the half-life at 166.7 µM was above 48 h.

Take YVPFPLP [YVPFPLP]: the Papp A→B at 4 h, 100 µM in [1] turned out to be 0.999 ×10⁻⁶ cm/s.
